According to US8247211B2, “Glycopeptide antibiotics” (American Cyanamid Company, priority 2001, dated 2012):
Converted amounts (≈) assume the structure as drawn.

Experiments:
Experiment in all cases: In vitro antibacterial evaluation: minimum inhibitory concentration (MIC), broth dilution method
Format in all cases: cell-based
[1] = tested on: Enterococcus sp.; conditions: for MIC Enterococcus faecalis (ATCC 29212): strain ATCC 29212; for MIC Enterococcus faecalis (GC 2242): strain GC 2242; for MIC Enterococcus faecium (GC 2243): strain GC 2243; for MIC Enterococcus faecalis (GC 2691): strain GC 2691; for MIC Enterococcus faecalis (GC 3059): strain GC 3059; for MIC Enterococcus faecalis (GC 4552): strain GC 4552; for MIC Enterococcus faecalis (GC 4553): strain GC 4553; for MIC Enterococcus faecalis (GC 4554): strain GC 4554; for MIC Enterococcus faecium (GC 4556): strain GC 4556; for MIC Enterococcus faecium (GC 4557): strain GC 4557; for MIC Enterococcus avium (GC 4558): strain GC 4558; for MIC Enterococcus faecalis (GC 6189): strain GC 6189
Method in brief: (§1)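 Test strains, among them recent clinical isolates carrying methicillin, penicillin and/or vancomycin resistance, were inoculated at 5×10^5 CFU/mL. A broth dilution series spanning 64-0.06 μg/mL in Muller-Hinton II […] (NCCLS M7-A2) defined the MIC as the lowest growth-inhibiting concentration.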

[2] = tested on: Escherichia coli; conditions: for MIC Escherichia coli (ATCC 25922): strain ATCC 25922; for MIC Escherichia coli (GC 4559): strain GC 4559; for MIC Escherichi coli (GC 4560): strain GC 4560
Method in brief: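 An MIC is reported for each organism as the least concentration giving inhibition, using broth dilution over 64-0.06 μg/mL with a 5×10^5 CFU/mL inoculum.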

[3] = tested on: Staphylococcus sp.; conditions: broth dilution, 18 hours at 35° C.
Method in brief: as §1

[4] = tested on: Streptococcus sp.; conditions: for MIC Streptococcus pneumoniae (ATCC 6301): strain ATCC 6301; for MIC Streptococcus pneumoniae (GC 1894): strain GC 1894; for MIC Streptococcus pyogenes (GC 4563): strain GC 4563; for MIC Streptococcus agalactiae (GC 4564): strain GC 4564; for MIC Streptococcus pneumoniae (GC 4565): strain GC 4565
Method in brief: as §1

## CC(c1ccccc1)C1NC(=O)CNC(=O)C(CO)NC(=O)C(C(O)C2CNC(=N)N2C2OC(CO)C(O)C(O)C2O)NC(=O)C(C(O)C2CNC(=N)N2)NC(=O)C(Cc2ccc(OC3OC(CO)C(OC4OC5COC(c6ccc7c(c6)OCCO7)OC5C(O)C4O)C(O)C3O)cc2)NC1=O (stereo not shown) [Example 149]
[1]
  MIC Enterococcus faecalis (ATCC 29212): 8 µg/mL (≈ 5.55 µM)
  MIC Enterococcus faecalis (GC 2242): 8 µg/mL (≈ 5.55 µM)
  MIC Enterococcus faecium (GC 2243): 8 µg/mL (≈ 5.55 µM)
  MIC Enterococcus faecalis (GC 2691): 8 µg/mL (≈ 5.55 µM)
  MIC Enterococcus faecalis (GC 3059): 8 µg/mL (≈ 5.55 µM)
  MIC Enterococcus faecalis (GC 4552): 8 µg/mL (≈ 5.55 µM)
  MIC Enterococcus faecalis (GC 4553): 8 µg/mL (≈ 5.55 µM)
  MIC Enterococcus faecalis (GC 4554): 8 µg/mL (≈ 5.55 µM)
  MIC Enterococcus faecium (GC 4556): 8 µg/mL (≈ 5.55 µM)
  MIC Enterococcus faecium (GC 4557): 2 µg/mL (≈ 1.39 µM)
  MIC Enterococcus avium (GC 4558): 8 µg/mL (≈ 5.55 µM)
  MIC Enterococcus faecalis (GC 6189): 8 µg/mL (≈ 5.55 µM)
[2]
  MIC Escherichia coli (ATCC 25922): >64 µg/mL
  MIC Escherichia coli (GC 4559): 64 µg/mL (≈ 44.4 µM)
  MIC Escherichi coli (GC 4560): <0.5 µg/mL
[3]; 5×10^5 CFU/mL
  MIC Coagulase Negative Staphylococcus (GC 4547): 1 µg/mL (≈ 0.694 µM)
  MIC Coagulase Negative Staphylococcus (GC 4548): 1 µg/mL (≈ 0.694 µM)
  MIC Coagulase Negative Staphylococcus (GC 4549): 1 µg/mL (≈ 0.694 µM)
  MIC Coagulase Negative Staphylococcus (GC 4551): 1 µg/mL (≈ 0.694 µM)
  MIC Coagulase Negative Staphylococcus (GC 6257): 1 µg/mL (≈ 0.694 µM)
  MIC Staphylococcus aureus (ATCC 29213): 2 µg/mL (≈ 1.39 µM)
  MIC Staphylococcus aureus (GC 1131): 2 µg/mL (≈ 1.39 µM)
  MIC Staphylococcus aureus (GC 3051): 2 µg/mL (≈ 1.39 µM)
  MIC Staphylococcus aureus (GC 3053): 4 µg/mL (≈ 2.78 µM)
  MIC Staphylococcus aureus (GC 4541): 2 µg/mL (≈ 1.39 µM)
  MIC Staphylococcus aureus (GC 4542): 2 µg/mL (≈ 1.39 µM)
  MIC Staphylococcus aureus (GC 4544): 2 µg/mL (≈ 1.39 µM)
  MIC Staphylococcus aureus (GC 4545): 2 µg/mL (≈ 1.39 µM)
  MIC Staphylococcus aureus-SMITH (GC 4543): 2 µg/mL (≈ 1.39 µM)
  MIC Staphylococcus haemolyticus (GC 4546): 1 µg/mL (≈ 0.694 µM)
[3]; strain ATCC 29213
  MIC Staphylococcus aureus (ATCC 29213): 2 µg/mL (≈ 1.39 µM)
[3]; strain GC 1131
  MIC Staphylococcus aureus (GC 1131): 2 µg/mL (≈ 1.39 µM)
[3]; strain GC 3051
  MIC Staphylococcus aureus (GC 3051): 2 µg/mL (≈ 1.39 µM)
[3]; strain GC 3053
  MIC Staphylococcus aureus (GC 3053): 4 µg/mL (≈ 2.78 µM)
[3]; strain GC 4541
  MIC Staphylococcus aureus (GC 4541): 2 µg/mL (≈ 1.39 µM)
[3]; strain GC 4542
  MIC Staphylococcus aureus (GC 4542): 2 µg/mL (≈ 1.39 µM)
[3]; strain GC 4543
  MIC Staphylococcus aureus-SMITH (GC 4543): 2 µg/mL (≈ 1.39 µM)
[3]; strain GC 4544
  MIC Staphylococcus aureus (GC 4544): 2 µg/mL (≈ 1.39 µM)
[3]; strain GC 4545
  MIC Staphylococcus aureus (GC 4545): 2 µg/mL (≈ 1.39 µM)
[3]; strain GC 4546
  MIC Staphylococcus haemolyticus (GC 4546): 1 µg/mL (≈ 0.694 µM)
[3]; strain GC 4547
  MIC Coagulase Negative Staphylococcus (GC 4547): 1 µg/mL (≈ 0.694 µM)
[3]; strain GC 4548
  MIC Coagulase Negative Staphylococcus (GC 4548): 1 µg/mL (≈ 0.694 µM)
[3]; strain GC 4549
  MIC Coagulase Negative Staphylococcus (GC 4549): 1 µg/mL (≈ 0.694 µM)
[3]; strain GC 4551
  MIC Coagulase Negative Staphylococcus (GC 4551): 1 µg/mL (≈ 0.694 µM)
[3]; strain GC 6257
  MIC Coagulase Negative Staphylococcus (GC 6257): 1 µg/mL (≈ 0.694 µM)
[4]
  MIC Streptococcus pneumoniae (ATCC 6301): <0.5 µg/mL
  MIC Streptococcus pneumoniae (GC 1894): <0.5 µg/mL
  MIC Streptococcus pyogenes (GC 4563): <0.5 µg/mL
  MIC Streptococcus agalactiae (GC 4564): 1 µg/mL (≈ 0.694 µM)
  MIC Streptococcus pneumoniae (GC 4565): 2 µg/mL (≈ 1.39 µM)

## COc1cc(OC)cc(C2OCC3OC(OC4C(CO)OC(Oc5ccc(CC6NC(=O)C(C(C)c7ccccc7)NC(=O)CNC(=O)C(CO)NC(=O)C(C(O)C7CNC(=N)N7C7OC(CO)C(O)C(O)C7O)NC(=O)C(C(O)C7CNC(=N)N7)NC6=O)cc5)C(O)C4O)C(O)C(O)C3O2)c1 (stereo not drawn) [Example 150, Cyclo[glycyl-β-methylphenylalanyl-O-[4-O-[4,6-O-(3,5-dimethoxybenzylidene)hexopyranosyl]-hexopyranosyl]tyrosyl-3-(2-iminoimidazolidin-4-yl)seryl-3-(3-hexopyranosyl-2-iminoimidazolidin-4-yl)serylseryl]]
[1]
  MIC Enterococcus faecalis (ATCC 29212): 8 µg/mL (≈ 5.54 µM)
  MIC Enterococcus faecalis (GC 2242): 4 µg/mL (≈ 2.77 µM)
  MIC Enterococcus faecium (GC 2243): 8 µg/mL (≈ 5.54 µM)
  MIC Enterococcus faecalis (GC 2691): 4 µg/mL (≈ 2.77 µM)
  MIC Enterococcus faecalis (GC 3059): 8 µg/mL (≈ 5.54 µM)
  MIC Enterococcus faecalis (GC 4552): 8 µg/mL (≈ 5.54 µM)
  MIC Enterococcus faecalis (GC 4553): 8 µg/mL (≈ 5.54 µM)
  MIC Enterococcus faecalis (GC 4554): 8 µg/mL (≈ 5.54 µM)
  MIC Enterococcus faecium (GC 4556): 8 µg/mL (≈ 5.54 µM)
  MIC Enterococcus faecium (GC 4557): 4 µg/mL (≈ 2.77 µM)
  MIC Enterococcus avium (GC 4558): 8 µg/mL (≈ 5.54 µM)
  MIC Enterococcus faecalis (GC 6189): 8 µg/mL (≈ 5.54 µM)
[2]
  MIC Escherichia coli (ATCC 25922): >64 µg/mL
  MIC Escherichia coli (GC 4559): 32 µg/mL (≈ 22.2 µM)
  MIC Escherichi coli (GC 4560): 1 µg/mL (≈ 0.693 µM)
[3]; 5×10^5 CFU/mL
  MIC Coagulase Negative Staphylococcus (GC 4547): 2 µg/mL (≈ 1.39 µM)
  MIC Coagulase Negative Staphylococcus (GC 4548): 1 µg/mL (≈ 0.693 µM)
  MIC Coagulase Negative Staphylococcus (GC 4549): 1 µg/mL (≈ 0.693 µM)
  MIC Coagulase Negative Staphylococcus (GC 4551): 2 µg/mL (≈ 1.39 µM)
  MIC Coagulase Negative Staphylococcus (GC 6257): 1 µg/mL (≈ 0.693 µM)
  MIC Staphylococcus aureus (ATCC 29213): 2 µg/mL (≈ 1.39 µM)
  MIC Staphylococcus aureus (GC 1131): 4 µg/mL (≈ 2.77 µM)
  MIC Staphylococcus aureus (GC 3051): 2 µg/mL (≈ 1.39 µM)
  MIC Staphylococcus aureus (GC 3053): 8 µg/mL (≈ 5.54 µM)
  MIC Staphylococcus aureus (GC 4541): 2 µg/mL (≈ 1.39 µM)
  MIC Staphylococcus aureus (GC 4542): 2 µg/mL (≈ 1.39 µM)
  MIC Staphylococcus aureus (GC 4544): 2 µg/mL (≈ 1.39 µM)
  MIC Staphylococcus aureus (GC 4545): 2 µg/mL (≈ 1.39 µM)
  MIC Staphylococcus aureus-SMITH (GC 4543): 2 µg/mL (≈ 1.39 µM)
  MIC Staphylococcus haemolyticus (GC 4546): 1 µg/mL (≈ 0.693 µM)
[3]; strain ATCC 29213
  MIC Staphylococcus aureus (ATCC 29213): 2 µg/mL (≈ 1.39 µM)
[3]; strain GC 1131
  MIC Staphylococcus aureus (GC 1131): 4 µg/mL (≈ 2.77 µM)
[3]; strain GC 3051
  MIC Staphylococcus aureus (GC 3051): 2 µg/mL (≈ 1.39 µM)
[3]; strain GC 3053
  MIC Staphylococcus aureus (GC 3053): 8 µg/mL (≈ 5.54 µM)
[3]; strain GC 4541
  MIC Staphylococcus aureus (GC 4541): 2 µg/mL (≈ 1.39 µM)
[3]; strain GC 4542
  MIC Staphylococcus aureus (GC 4542): 2 µg/mL (≈ 1.39 µM)
[3]; strain GC 4543
  MIC Staphylococcus aureus-SMITH (GC 4543): 2 µg/mL (≈ 1.39 µM)
[3]; strain GC 4544
  MIC Staphylococcus aureus (GC 4544): 2 µg/mL (≈ 1.39 µM)
[3]; strain GC 4545
  MIC Staphylococcus aureus (GC 4545): 2 µg/mL (≈ 1.39 µM)
[3]; strain GC 4546
  MIC Staphylococcus haemolyticus (GC 4546): 1 µg/mL (≈ 0.693 µM)
[3]; strain GC 4547
  MIC Coagulase Negative Staphylococcus (GC 4547): 2 µg/mL (≈ 1.39 µM)
[3]; strain GC 4548
  MIC Coagulase Negative Staphylococcus (GC 4548): 1 µg/mL (≈ 0.693 µM)
[3]; strain GC 4549
  MIC Coagulase Negative Staphylococcus (GC 4549): 1 µg/mL (≈ 0.693 µM)
[3]; strain GC 4551
  MIC Coagulase Negative Staphylococcus (GC 4551): 2 µg/mL (≈ 1.39 µM)
[3]; strain GC 6257
  MIC Coagulase Negative Staphylococcus (GC 6257): 1 µg/mL (≈ 0.693 µM)
[4]
  MIC Streptococcus pneumoniae (ATCC 6301): 0.25 µg/mL (≈ 0.173 µM)
  MIC Streptococcus pneumoniae (GC 1894): 0.12 µg/mL (≈ 0.0831 µM)
  MIC Streptococcus pyogenes (GC 4563): 0.5 µg/mL (≈ 0.346 µM)
  MIC Streptococcus agalactiae (GC 4564): 1 µg/mL (≈ 0.693 µM)
  MIC Streptococcus pneumoniae (GC 4565): 0.25 µg/mL (≈ 0.173 µM)
